Measurements from US20250288704A1, “CXCR4-LIGANDS FOR DIAGNOSTIC AND THERAPEUTIC USE AND PRECURSORS THEREOF” (priority 2021, published 2025).
Values belong to the compound of their own block, whether it stands above or below them. Positions of bridges follow the written chain, without caps; N, C: chain ends. Non-standard residues stand in square brackets, D forms with d. Residues, ends and D or L forms follow the SMILES beside them. Chains are numbered I, II in the order given. *: point of attachment. X2 = OC[C@H]1O[C@@H](O[C@H]2[C@H](O)[C@@H](O)[C@H](*)O[C@@H]2CO)[C@H](O)[C@@H](O)[C@H]1O; X5 = CC(C)(C)[Si](F)(c1ccc(C[N+](C)(C)CC(=O)*)cc1)C(C)(C)C; DOTA = O=C(O)CN1CCN(CC(=O)O)CCN(CC(=O)*)CCN(CC(=O)O)CC1; 2Nal = N[C@@H](Cc1ccc2ccccc2c1)C(=O)O; dNMeOrn = CN[C@H](CCCN)C(=O)O; d(hCys) = N[C@H](CCS)C(=O)O; Mercaptoacetyl = O=C(CS)*; X4 = OCC1OC(*)C(O)C(O)C1O; 4Abz = Nc1ccc(C(=O)O)cc1; dDap = NC[C@@H](N)C(=O)O; Ahx = NCCCCCC(=O)O

Legend:
[1] = system: Jurkat tumor-bearing CB-17 SCID mice; test: Biodistribution in Jurkat tumor-bearing CB-17 SCID mice; type: in vivo; conditions: 1 h p.i.
Outline: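 Radioligand (125I, 177Lu, 99mTc, 18F or 68Ga label; roughly 0.5-20 MBq, 0.02-0.20 nmol) was injected intravenously via tail vein. Hosts were CB17-SCID mice with subcutaneous Jurkat tumors of 5-8 mm, 4-10 weeks post-inoculation. Dissected organs were weighed and counted in a γ-counter.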

[2] = system: CXCR4-expressing Chem_1 cells; test: Determination of internalization, dual tracer with 125I-Fc-131; type: cell-based; conditions: for Cell-bound [%] / Internalized [%]: of total cellular activity
Outline: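 Receptor blockade used AMD3100 (1 mM stock) versus medium-treated wells, triplicate per time point, in Chem_1 cells cultured at 37 °C in DMEM-F12/10% FBS. Activity of supernatant, surface-bound and internalized (1 M NaOH) fractions measured by γ-counter, corrected for non-specific uptake and normalised to standard ligand.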

[3] = Octanol/PBS partition coefficient (logD7.4); type: physicochemical; conditions: n-octanol/PBS pH 7.4, radiolabeled compound
Protocol: The tubes were vortexed at maximum speed for 3 min to ensure equilibrium before centrifugation at 15.000×g for 5 min on a Biofuge 15 from Heraeus Holding GmbH (Osterode, Germany). An aliquot of 100 μL of each fraction was measured in the γ-counter and the log D7.4 calculated as follows: […]

CXCR4 [4] = target: T1, CXCR4 (Homo sapiens, UniProt P61073); test: Determination of IC50: competition with 125I-Fc-131 on CXCR4-positive Jurkat cells; type: binding; parameters: CXCR4-positive Jurkat T lymphocyte cells were grown in Gibco's RPMI 1640 GlutaMAX medium; endogenous in cells; host or cells: Jurkat T lymphocyte cells (whole cells in suspension, 400.000 per tube); conditions: unlabeled or cold (natGa/natLu) compound vs 125I-Fc-131, Jurkat cells;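 also: test compound at 10^−5 to 10^−11 M competed for 2 h at 8 °C with the radioligand on 400,000 cells per well, bound versus free activity measured by γ-counting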
CXCR4 [5] = target: T1, CXCR4; test: Determination of inverse IC50 (invIC50): radiolabeled peptide displaced by Fc-131 on Jurkat cells
[6] = 2,000 pmol cold substance co-injected, 1 mouse
[7] = co-injection of 1,000 μmol (so in the source) cold substance vs 36 pmol, 1 mouse

T1 sequence (P61073 whole entry): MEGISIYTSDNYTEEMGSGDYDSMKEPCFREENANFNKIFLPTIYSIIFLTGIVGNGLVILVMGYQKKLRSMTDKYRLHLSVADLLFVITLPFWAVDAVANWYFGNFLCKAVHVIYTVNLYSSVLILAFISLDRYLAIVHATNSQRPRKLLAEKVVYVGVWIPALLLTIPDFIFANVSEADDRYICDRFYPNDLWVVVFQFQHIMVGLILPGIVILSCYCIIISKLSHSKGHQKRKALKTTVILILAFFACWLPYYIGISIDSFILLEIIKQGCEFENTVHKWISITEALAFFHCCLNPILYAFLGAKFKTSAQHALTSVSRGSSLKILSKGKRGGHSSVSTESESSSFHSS

Compound: C[C@@H](NC(=O)[C@@H](CCCNC(=N)N)NC(=O)[C@@H](CN)NC(=O)CCCCCNC(=O)[C@@H](CNC(=O)CN1CCN(CC(=O)O)CCN(CC(=O)O)CCN(CC(=O)O)CC1)NC(=O)[C@@H](CCS[C@@H]1O[C@H](CO)[C@@H](O[C@@H]2O[C@H](CO)[C@H](O)[C@H](O)[C@H]2O)[C@H](O)[C@H]1O)NC(=O)C[N+](C)(C)Cc1ccc([Si](F)(C(C)(C)C)C(C)(C)C)cc1)C(=O)Nc1ccc(C(=O)NCCC[C@@H]2C(=O)N[C@@H](CCCNC(=N)N)C(=O)N[C@@H](Cc3ccc4ccccc4c3)C(=O)NCC(=O)N[C@H](Cc3ccc(O)cc3)C(=O)N2C)cc1 [CXCR4-SiFA-7 [Ga]] (I: X5-[d(hCys)](X2)[dDap](DOTA)[Ahx][dDap][dR][dA][4Abz] / II: cyclo([dY][dNMeOrn]R[2Nal]G); amide I:C-II:2)
uptake in liver compared to biodistribution with 36 pmol [1, 6]: 70%
uptake in spleen compared to biodistribution with 36 pmol [1, 6]: 61%
uptake in tumor compared to biodistribution with 36 pmol [1, 6]: 40%
Blood activity level raised by [1, 7]: 310%
tumor uptake compared to un-supplemented injection [1, 7]: 180%
uptake in liver compared to un-supplemented injection [1, 7]: 121%
uptake in muscle compared to un-supplemented injection [1, 7]: 226%
uptake in pancreas compared to un-supplemented injection [1, 7]: 196%
uptake in spleen compared to un-supplemented injection [1, 7]: 114%
Internalized in relation to 125I-Fc-131 [%] ([2]; 30 min): 837 ± 51.4%
Cell-bound [%] ([2]; 30 min): 0.11 ± 0.29%
Internalized [%] ([2]; 30 min): 38.9 ± 1.09%
Internalization [% Fc-131] ([2]; 90 min): 1029 % Fc-131
Internalized in relation to 125I-Fc-131 [%] ([2]; 90 min): 1029 ± 66.7%
Cell-bound [%] ([2]; 90 min): 0 ± 0.41%
Internalized [%] ([2]; 90 min): 50.0 ± 1.12%
logD7.4 [3]: −1.95 ± 0.05 (8)
IC50 (CXCR4 [4]): 6.23 ± 1.57 nM

logD7.4 [3]: −1.84 ± 0.01 (8)
invIC50 [nM] (CXCR4 [5]; radiolabeled compound displaced by Fc-131, Jurkat cells): No
Compound: CPCR4-HYNIC [reference compound]
Internalization [% Fc-131] ([2]; 90 min): 29 (90 min) % Fc-131

Compound: CC[C@H](C)[C@@H]([C@@H](CC(=O)N1CCC[C@H]1[C@H](OC)[C@@H](C)C(=O)N[C@H](C)C(O)c1ccccc1)OC)N(C)C(=O)[C@@H](NC(=O)[C@H](C(C)C)N(C)C(=O)OCc1ccc(NC(=O)[C@H](CCCNC(N)=O)NC(=O)[C@@H](NC(=O)CCCCCN2C(=O)CC(SCC[C@@H](N)C(=O)N[C@H](CCCNC(=N)N)C(=O)N[C@H](C)C(=O)Nc3ccc(C(=O)NCCC[C@@H]4C(=O)N[C@@H](CCCNC(=N)N)C(=O)N[C@@H](Cc5ccc6ccccc6c5)C(=O)NCC(=O)N[C@H](Cc5ccc(O)cc5)C(=O)N4C)cc3)C2=O)C(C)C)cc1)C(C)C (some centres unmarked) [^125I-CXCR4-MMAE −2]
% iD/g Blood ([1]; Blood, Jurkat xenograft, CB-17 SCID female mice): 2.28 % iD/g
% iD/g Bone ([1]; Bone, Jurkat xenograft, CB-17 SCID female mice): 0.80 % iD/g
% iD/g Heart ([1]; Heart, Jurkat xenograft, CB-17 SCID female mice): 1.31 % iD/g
% iD/g Intestine ([1]; Intestine, Jurkat xenograft, CB-17 SCID female mice): 1.13 % iD/g
% iD/g Kidney ([1]; Kidney, Jurkat xenograft, CB-17 SCID female mice): 18.3 % iD/g
% iD/g Liver ([1]; Liver, Jurkat xenograft, CB-17 SCID female mice): 27.8 % iD/g
% iD/g Lung ([1]; Lung, Jurkat xenograft, CB-17 SCID female mice): 3.67 % iD/g
% iD/g Muscle ([1]; Muscle, Jurkat xenograft, CB-17 SCID female mice): 0.33 % iD/g
% iD/g Pancreas ([1]; Pancreas, Jurkat xenograft, CB-17 SCID female mice): 0.80 % iD/g
% iD/g Spleen ([1]; Spleen, Jurkat xenograft, CB-17 SCID female mice): 4.31 % iD/g
% iD/g Stomach ([1]; Stomach, Jurkat xenograft, CB-17 SCID female mice): 1.85 % iD/g
% iD/g Tumor ([1]; Tumor, Jurkat xenograft, CB-17 SCID female mice): 2.41 % iD/g
Cell-bound [%] ([2]; 10 min): 1.56 ± 0.78%
Internalized [%] ([2]; 10 min): 2.55 ± 0.34%
Cell-bound [%] ([2]; 30 min): 2.09 ± 0.64%
Internalized [%] ([2]; 30 min): 7.78 ± 0.58%
Cell-bound [%] ([2]; 60 min): 0.73 ± 0.54%
Internalized [%] ([2]; 60 min): 14.6 ± 0.89%
Cell-bound [%] ([2]; 120 min): 0.27 ± 0.35%
Internalized [%] ([2]; 120 min): 27.9 ± 1.14%

Compound: C[C@@H](NC(=O)[C@@H](CCCNC(=N)N)NC(=O)[C@@H](CN)NC(=O)[C@@H](CO)NC(=O)[C@@H](CCSC1OC(CO)C(O)C(O)C1O)NC(=O)[C@@H](CCSC1OC(CO)C(O)C(O)C1O)NC(=O)CS)C(=O)Nc1ccc(C(=O)NCCC[C@@H]2C(=O)N[C@@H](CCCNC(=N)N)C(=O)N[C@@H](Cc3ccc4ccccc4c3)C(=O)NCC(=O)N[C@H](Cc3ccc(O)cc3)C(=O)N2C)cc1 (some centres unmarked) [Tc-CXCR4-10] (I: Mercaptoacetyl-[d(hCys)](X4)[d(hCys)](X4)[dS][dDap][dR][dA][4Abz] / II: cyclo([2Nal]G[dY][dNMeOrn]R); amide I:C-II:4)
Internalized in relation to 125I-Fc-131 [%] ([2]; 30 min): 226 ± 10.2%
Cell-bound [%] ([2]; 30 min): 6.75 ± 0.76%
Internalized [%] ([2]; 30 min): 18.8± 0.66%
Internalization [% Fc-131] ([2]; 90 min): 267 (90 min) % Fc-131
Internalized in relation to 125I-Fc-131 [%] ([2]; 90 min): 267 ± 8.94%
Cell-bound [%] ([2]; 90 min): 6.06 ± 0.34%
Internalized [%] ([2]; 90 min): 31.7 ± 0.52%
logD7.4 [3]: −2.32 ± 0.02 (7)
IC50 (CXCR4 [5]): 5.13 ± 1.81 nM
